Test results: US9877956B2, “Antiviral compounds and methods of use thereof” (Trana Discovery, Inc., priority 2014, dated 2018)
Values after ≈ are worked out from the molar mass of the structure shown. Values joined by “and” are separate entries in the source; they are usually repeats but may differ in a detail not shown here. Equal values may be shown once.

What was measured:
Assay type in all cases: cell-based
HIV-1 92/HT/599 = HIV-1 92/HT/599 replication in human PBMCs, reverse transcriptase in culture supernatants (RLU); settings: for RLU (Relative Light Units), SAMPLE: individual samples, listed as Trana 154
Method: In these studies, PHA-P stimulated PBMCs from three donors were pooled together and re-suspended in fresh tissue culture medium at 1×10^6 cells/mL and plated in the interior wells of a 96 well round bottom microplate at 50µl/well. A 100µL volume of 9 concentrations of compound serially diluted were transferred to the round-bottom 96 well plate containing the cells in triplicate. Fifty microliters (µL) of HIV-1 at a pre-determined dilution was added. Each plate contained cell control wells and virus control wells in parallel with the experimental wells. After 7 days in culture, efficacy was evaluated by measuring the reverse transcriptase in the culture supernatants and the cells were stained with the tetrazolium dye XTT to evaluate cytotoxicity.

PBMC = test: Toxicity in PBMC (Cell Titer 96); settings: for % CC: O.D. relative to cell control; for TOXICITY VALUES (Cell Titer 96 - O.D. @ 490/650 nm), SAMPLE: individual samples
Source text: (§1) These compounds were further screened for activity in HIV-1-infected peripheral blood mononuclear cells (PBMC). The data (experiments were repeated, so duplicates are shown) is summarized in the tables below, and also in FIGS. 4A-B and 5A-B.

[1] = Toxicity in PBMC (Cell Titer 96); settings: human, peripheral blood mononuclear cells (PBMC); PBMC, Cell Titer 96
Source text: as §1

c1ccc(N/N=C2/CCc3ccccc3N2)cc1 [HIT #154]
RLU (Relative Light Units), SAMPLE (HIV-1 92/HT/599; 0.32 μg/ml): 27495.0 RLU and 14218.0 RLU and 6891.0 RLU
% Virus Control (HIV-1 92/HT/599; 1 μg/ml): 78.40%
Antiviral Test Values Mean RLU (HIV-1 92/HT/599; 1 μg/ml): 15121.3 RLU
RLU (Relative Light Units), SAMPLE (HIV-1 92/HT/599; 1 μg/ml): 10410.0 RLU and 21914.0 RLU and 13031.0 RLU
% Virus Control (HIV-1 92/HT/599; 3.16 μg/ml): 41.46%
Antiviral Test Values Mean RLU (HIV-1 92/HT/599; 3.16 μg/ml): 7996.7 RLU
RLU (Relative Light Units), SAMPLE (HIV-1 92/HT/599; 3.16 μg/ml): 11407.0 RLU and 10934.0 RLU and 1649.0 RLU
% Virus Control (HIV-1 92/HT/599; 9.99 μg/ml): 48.92%
Antiviral Test Values Mean RLU (HIV-1 92/HT/599; 9.99 μg/ml): 9436.3 RLU
RLU (Relative Light Units), SAMPLE (HIV-1 92/HT/599; 9.99 μg/ml): 13230.0 RLU and 13148.0 RLU and 1933.0 RLU
% Virus Control (HIV-1 92/HT/599; 31.6 μg/ml): 35.47%
Antiviral Test Values Mean RLU (HIV-1 92/HT/599; 31.6 μg/ml): 6841.0 RLU
RLU (Relative Light Units), SAMPLE (HIV-1 92/HT/599; 31.6 μg/ml): 5800.0 RLU and 7652.0 RLU and 7462.0 RLU
% Virus Control (HIV-1 92/HT/599; 100 μg/ml): 6.75%
Antiviral Test Values Mean RLU (HIV-1 92/HT/599; 100 μg/ml): 1301.3 RLU
RLU (Relative Light Units), SAMPLE (HIV-1 92/HT/599; 100 μg/ml): 1021.0 RLU and 744.0 RLU and 2139.0 RLU
EC 25% (HIV-1 92/HT/599; HIV-1 92/HT/599, human PBMCs): 1.11 µg/mL (≈ 4.68 µM)
EC 95% (HIV-1 92/HT/599; HIV-1 92/HT/599, human PBMCs): >100 µg/mL
EC50 (HIV-1 92/HT/599; Human immunodeficiency virus 1, PBMC, read-out: EC50 (EC 50%), HIV-1 92/HT/599, human PBMCs): 2.42 µg/mL (≈ 10.2 µM)
Therapeutic Index (TI) 25% (HIV-1 92/HT/599; TC/EC at 25%): 20.09
Therapeutic Index (TI) 50% (HIV-1 92/HT/599; TC/EC at 50%): 33.76
Therapeutic Index (TI) 95% (HIV-1 92/HT/599; TC/EC at 95%): 1
TOXICITY VALUES (Cell Titer 96 - O.D. @ 490/650 nm), MEAN (PBMC; 0.01 μM): 0.990 O.D.
% CC (PBMC; 0.01 μM): 119.6%
TOXICITY VALUES (Cell Titer 96 - O.D. @ 490/650 nm), SAMPLE (PBMC; 0.01 μM): 1.163 O.D. and 1.007 O.D. and 0.800 O.D.
TOXICITY VALUES (Cell Titer 96 - O.D. @ 490/650 nm), MEAN (PBMC; 0.03 μM): 0.810 O.D.
% CC (PBMC; 0.03 μM): 97.9%
TOXICITY VALUES (Cell Titer 96 - O.D. @ 490/650 nm), SAMPLE (PBMC; 0.03 μM): 0.746 O.D. and 0.831 O.D. and 0.853 O.D.
TOXICITY VALUES (Cell Titer 96 - O.D. @ 490/650 nm), MEAN (PBMC; 0.10 μM): 0.966 O.D.
% CC (PBMC; 0.10 μM): 116.8%
TOXICITY VALUES (Cell Titer 96 - O.D. @ 490/650 nm), SAMPLE (PBMC; 0.10 μM): 1.086 O.D. and 0.970 O.D. and 0.843 O.D.
TOXICITY VALUES (Cell Titer 96 - O.D. @ 490/650 nm), MEAN (PBMC; 0.32 μM): 0.937 O.D.
% CC (PBMC; 0.32 μM): 113.3%
TOXICITY VALUES (Cell Titer 96 - O.D. @ 490/650 nm), SAMPLE (PBMC; 0.32 μM): 0.736 O.D. and 1.231 O.D. and 0.845 O.D.
TOXICITY VALUES (Cell Titer 96 - O.D. @ 490/650 nm), MEAN (PBMC; 1.00 μM): 1.077 O.D.
% CC (PBMC; 1.00 μM): 130.2%
TOXICITY VALUES (Cell Titer 96 - O.D. @ 490/650 nm), SAMPLE (PBMC; 1.00 μM): 1.296 O.D. and 1.045 O.D. and 0.892 O.D.
TOXICITY VALUES (Cell Titer 96 - O.D. @ 490/650 nm), MEAN (PBMC; 3.16 μM): 0.964 O.D.
% CC (PBMC; 3.16 μM): 116.5%
TOXICITY VALUES (Cell Titer 96 - O.D. @ 490/650 nm), SAMPLE (PBMC; 3.16 μM): 1.146 O.D. and 0.903 O.D. and 0.843 O.D.
TOXICITY VALUES (Cell Titer 96 - O.D. @ 490/650 nm), MEAN (PBMC; 10.0 μM): 0.937 O.D.
% CC (PBMC; 10.0 μM): 113.2%
TOXICITY VALUES (Cell Titer 96 - O.D. @ 490/650 nm), SAMPLE (PBMC; 10.0 μM): 0.712 O.D. and 1.254 O.D. and 0.846 O.D.
TOXICITY VALUES (Cell Titer 96 - O.D. @ 490/650 nm), MEAN (PBMC; 31.6 μM): 0.962 O.D.
% CC (PBMC; 31.6 μM): 116.3%
TOXICITY VALUES (Cell Titer 96 - O.D. @ 490/650 nm), SAMPLE (PBMC; 31.6 μM): 0.898 O.D. and 1.018 O.D. and 0.970 O.D.
TOXICITY VALUES (Cell Titer 96 - O.D. @ 490/650 nm), MEAN (PBMC; 100 μM): 0.769 O.D.
% CC (PBMC; 100 μM): 92.9%
TOXICITY VALUES (Cell Titer 96 - O.D. @ 490/650 nm), SAMPLE (PBMC; 100 μM): 0.757 O.D. and 0.854 O.D. and 0.697 O.D.
TC 90% (PBMC; PBMC, Cell Titer 96): >100 µM
TC 95% (PBMC; PBMC, Cell Titer 96): >100 µM
CC50 [1]: > 100 µM
